As a reminder, the MIC is the smallest concentration in the dilution series that meets the test's criterion for growth inhibition. Low values mean inhibition by little substance, high ones a need for much substance.

Type in all cases: functional
The test system of experiment [1] is Streptococcus pneumoniae. Description: Antibacterial activity against erythromycin-resistant Streptococcus pneumoniae B1 expressing erm gene by broth microdilution method. On the technique in general: In broth dilution the organism is exposed to a series of concentrations in liquid medium.
Experiment [2] deals with Streptococcus pneumoniae. As to the kind of experiment: Antibacterial activity against erythromycin-susceptible Streptococcus pneumoniae ATCC 49619 by broth microdilution method.
For experiment [3], the system named is Streptococcus pneumoniae. As to the kind of experiment: Antibacterial activity against erythromycin-resistant Streptococcus pneumoniae A22072 expressing mef gene by broth microdilution method.
The subject of experiment [4] is Streptococcus pneumoniae. Description: Antibacterial activity against erythromycin-resistant Streptococcus pneumoniae AB11 expressing erm and mef genes by broth microdilution method.

≈ marks a conversion by molar mass, not a printed value.

On to `CC[C@H]1OC(=O)[C@H](C)[C@@H](O[C@H]2C[C@@](C)(OC)[C@@H](OC(=O)NCc3ccc(F)cc3)[C@H](C)O2)[C@H](C)[C@@H](O[C@@H]2O[C@H](C)C[C@H](N(C)C)[C@H]2O)[C@](C)(O)C[C@@H](C)CN(C)[C@H](C)[C@@H](OC(=O)NCCc2ccccc2)[C@]1(C)O`, for which the MIC against Streptococcus pneumoniae [1] is 0.25 µg/mL (≈ 0.239 µM); against Streptococcus pneumoniae [2] it was under 0.03 µg/mL; against Streptococcus pneumoniae [3] it was 0.06 µg/mL (≈ 0.0573 µM); with Streptococcus pneumoniae [4], 32 µg/mL (≈ 30.6 µM).
On the same counts, the results for `CC[C@H]1OC(=O)[C@H](C)[C@@H](O[C@H]2C[C@@](C)(OC)[C@@H](OC(=O)NCc3ccc(F)cc3)[C@H](C)O2)[C@H](C)[C@@H](O[C@@H]2O[C@H](C)C[C@H](N(C)C)[C@H]2O)[C@](C)(O)C[C@@H](C)CN(C)[C@H](C)[C@@H](OC(=O)NCCc2ccccc2Cl)[C@]1(C)O` are 0.25 µg/mL (≈ 0.231 µM), under 0.03 µg/mL, 0.12 µg/mL (≈ 0.111 µM) and 2 µg/mL (≈ 1.85 µM).
Regarding `CC[C@H]1OC(=O)[C@H](C)[C@@H](O[C@H]2C[C@@](C)(OC)[C@@H](OC(=O)NCc3ccc(OC)cc3)[C@H](C)O2)[C@H](C)[C@@H](O[C@@H]2O[C@H](C)C[C@H](N(C)C)[C@H]2O)[C@](C)(O)C[C@@H](C)CN(C)[C@H](C)[C@H]2OC(=O)O[C@@]21C`, the MIC with Streptococcus pneumoniae [1] was 8 µg/mL (≈ 8.53 µM); against Streptococcus pneumoniae [2], under 0.03 µg/mL; against Streptococcus pneumoniae [3], 0.25 µg/mL (≈ 0.266 µM); against Streptococcus pneumoniae [4], 16 µg/mL (≈ 17.1 µM).
In the same order, the values of `CC[C@H]1OC(=O)[C@H](C)[C@@H](O[C@H]2C[C@@](C)(OC)[C@@H](OC(=O)NCCc3ccc(O)cc3)[C@H](C)O2)[C@H](C)[C@@H](O[C@@H]2O[C@H](C)C[C@H](N(C)C)[C@H]2O)[C@](C)(O)C[C@@H](C)CN(C)[C@H](C)[C@@H](OC(=O)NCc2ccccc2)[C@]1(C)O` are 0.25 µg/mL (≈ 0.239 µM), under 0.03 µg/mL, 0.12 µg/mL (≈ 0.115 µM) and 128 µg/mL (≈ 122 µM).
In the same order, the values of `CCCCNC(=O)O[C@@H]1[C@@H](C)N(C)C[C@H](C)C[C@@](C)(O)[C@H](O[C@@H]2O[C@H](C)C[C@H](N(C)C)[C@H]2O)[C@@H](C)[C@H](O[C@H]2C[C@@](C)(OC)[C@@H](OC(=O)NCCc3ccc(O)cc3)[C@H](C)O2)[C@@H](C)C(=O)O[C@H](CC)[C@@]1(C)O` are 0.25 µg/mL (≈ 0.247 µM), under 0.03 µg/mL, 1 µg/mL (≈ 0.989 µM) and 128 µg/mL (≈ 127 µM).
In the same order, the values of `CC[C@H]1OC(=O)[C@H](C)[C@@H](O[C@H]2C[C@@](C)(OC)[C@@H](OC(=O)NCCc3ccccc3Cl)[C@H](C)O2)[C@H](C)[C@@H](O[C@@H]2O[C@H](C)C[C@H](N(C)C)[C@H]2O)[C@](C)(O)C[C@@H](C)CN(C)[C@H](C)[C@@H](OC(=O)NCCc2ccc(O)cc2)[C@]1(C)O` are 0.25 µg/mL (≈ 0.229 µM), under 0.03 µg/mL, 0.06 µg/mL (≈ 0.0549 µM) and 16 µg/mL (≈ 14.6 µM).
Take `CCCCNC(=O)O[C@@H]1[C@@H](C)N(C)C[C@H](C)C[C@@](C)(O)[C@H](O[C@@H]2O[C@H](C)C[C@H](N(C)C)[C@H]2O)[C@@H](C)[C@H](O[C@H]2C[C@@](C)(OC)[C@@H](OC(=O)NCc3ccc(OC)cc3)[C@H](C)O2)[C@@H](C)C(=O)O[C@H](CC)[C@@]1(C)O`: the MIC with Streptococcus pneumoniae [1] turned out to be 0.5 µg/mL (≈ 0.494 µM); against Streptococcus pneumoniae [2], 0.06 µg/mL (≈ 0.0593 µM); in the experiment on Streptococcus pneumoniae [3], 1 µg/mL (≈ 0.989 µM); in the experiment with Streptococcus pneumoniae [4], 128 µg/mL (≈ 127 µM).
On the same counts, the results for `CC[C@H]1OC(=O)[C@H](C)[C@@H](O[C@H]2C[C@@](C)(OC)[C@@H](OC(=O)NCCc3ccccc3Cl)[C@H](C)O2)[C@H](C)[C@@H](O[C@@H]2O[C@H](C)C[C@H](N(C)C)[C@H]2O)[C@](C)(O)C[C@@H](C)CN(C)[C@H](C)[C@H]2OC(=O)O[C@@]21C` are 8 µg/mL (≈ 8.36 µM), under 0.03 µg/mL, 0.25 µg/mL (≈ 0.261 µM) and 2 µg/mL (≈ 2.09 µM).
In the same order, the values of `CC[C@H]1OC(=O)[C@H](C)[C@@H](O[C@H]2C[C@@](C)(OC)[C@@H](OC(=O)NCc3ccc(F)cc3)[C@H](C)O2)[C@H](C)[C@@H](O[C@@H]2O[C@H](C)C[C@H](N(C)C)[C@H]2O)[C@](C)(O)C[C@@H](C)CN(C)[C@H](C)[C@H]2OC(=O)O[C@@]21C` are 8 µg/mL (≈ 8.64 µM), under 0.03 µg/mL, 0.06 µg/mL (≈ 0.0648 µM) and 4 µg/mL (≈ 4.32 µM).
In the same order, the values of `CC[C@H]1OC(=O)[C@H](C)[C@@H](O[C@H]2C[C@@](C)(OC)[C@@H](O)[C@H](C)O2)[C@H](C)[C@@H](O[C@@H]2O[C@H](C)C[C@H](N(C)C)[C@H]2O)[C@](C)(O)C[C@@H](C)CN(C)[C@H](C)[C@@H](O)[C@]1(C)O` [AZITHROMYCIN] are 128 µg/mL (≈ 171 µM), under 0.03 µg/mL, 4 µg/mL (≈ 5.34 µM) and 256 µg/mL (≈ 342 µM).
Take `CCCCCNC(=O)O[C@@H]1[C@@H](C)N(C)C[C@H](C)C[C@@](C)(O)[C@H](O[C@@H]2O[C@H](C)C[C@H](N(C)C)[C@H]2O)[C@@H](C)[C@H](O[C@H]2C[C@@](C)(OC)[C@@H](OC(=O)NCCc3ccccc3Cl)[C@H](C)O2)[C@@H](C)C(=O)O[C@H](CC)[C@@]1(C)O`: the MIC against Streptococcus pneumoniae [1] was 0.5 µg/mL (≈ 0.479 µM); against Streptococcus pneumoniae [2], under 0.03 µg/mL; in the experiment on Streptococcus pneumoniae [3], 0.5 µg/mL (≈ 0.479 µM); in the experiment on Streptococcus pneumoniae [4], 16 µg/mL (≈ 15.3 µM).
Consider `CC[C@H]1OC(=O)[C@H](C)[C@@H](O[C@H]2C[C@@](C)(OC)[C@@H](OC(=O)NCCc3ccccc3Cl)[C@H](C)O2)[C@H](C)[C@@H](O[C@@H]2O[C@H](C)C[C@H](N(C)C)[C@H]2O)[C@](C)(O)C[C@@H](C)CN(C)[C@H](C)[C@@H](OC(=O)NCc2ccc(F)cc2)[C@]1(C)O`, for which the MIC in the experiment on Streptococcus pneumoniae [1] was determined as 0.25 µg/mL (≈ 0.231 µM); in the experiment on Streptococcus pneumoniae [2], 0.06 µg/mL (≈ 0.0555 µM); with Streptococcus pneumoniae [3] it was 0.25 µg/mL (≈ 0.231 µM); in the experiment with Streptococcus pneumoniae [4], 4 µg/mL (≈ 3.7 µM).
`CC[C@H]1OC(=O)[C@H](C)[C@@H](O[C@H]2C[C@@](C)(OC)[C@@H](OC(=O)NCCc3ccc(O)cc3)[C@H](C)O2)[C@H](C)[C@@H](O[C@@H]2O[C@H](C)C[C@H](N(C)C)[C@H]2O)[C@](C)(O)C[C@@H](C)CN(C)[C@H](C)[C@H]2OC(=O)O[C@@]21C`: the MIC against Streptococcus pneumoniae [1] was 8 µg/mL (≈ 8.53 µM); with Streptococcus pneumoniae [2], under 0.03 µg/mL; in the experiment with Streptococcus pneumoniae [3], 1 µg/mL (≈ 1.07 µM); against Streptococcus pneumoniae [4], 4 µg/mL (≈ 4.26 µM).
Take `CC[C@H]1OC(=O)[C@H](C)[C@@H](O[C@H]2C[C@@](C)(OC)[C@@H](O)[C@H](C)O2)[C@H](C)[C@@H](O[C@@H]2O[C@H](C)C[C@H](N(C)C)[C@H]2O)[C@](C)(OC)C[C@@H](C)C(=O)[C@H](C)[C@@H](O)[C@]1(C)O` [CLARITHROMYCIN]: the MIC against Streptococcus pneumoniae [1] is 64 µg/mL (≈ 85.6 µM); with Streptococcus pneumoniae [2] it was under 0.03 µg/mL; with Streptococcus pneumoniae [3] it was 4 µg/mL (≈ 5.35 µM); against Streptococcus pneumoniae [4], 128 µg/mL (≈ 171 µM).
For the molecule `CCCCCNC(=O)O[C@@H]1[C@@H](C)N(C)C[C@H](C)C[C@@](C)(O)[C@H](O[C@@H]2O[C@H](C)C[C@H](N(C)C)[C@H]2O)[C@@H](C)[C@H](O[C@H]2C[C@@](C)(OC)[C@@H](OC(=O)NCc3ccc(OC)cc3)[C@H](C)O2)[C@@H](C)C(=O)O[C@H](CC)[C@@]1(C)O`, the MIC in the experiment with Streptococcus pneumoniae [1] was 0.5 µg/mL (≈ 0.488 µM); with Streptococcus pneumoniae [2], 0.06 µg/mL (≈ 0.0585 µM); against Streptococcus pneumoniae [3], 1 µg/mL (≈ 0.975 µM); against Streptococcus pneumoniae [4], 32 µg/mL (≈ 31.2 µM).
In the same order, the values of `CC[C@H]1OC(=O)[C@H](C)[C@@H](O[C@H]2C[C@@](C)(OC)[C@@H](OC(=O)NCCc3ccc(O)cc3)[C@H](C)O2)[C@H](C)[C@@H](O[C@@H]2O[C@H](C)C[C@H](N(C)C)[C@H]2O)[C@](C)(O)C[C@@H](C)CN(C)[C@H](C)[C@@H](OC(=O)NCCc2ccccc2Cl)[C@]1(C)O` are 0.25 µg/mL (≈ 0.229 µM), under 0.03 µg/mL, 0.25 µg/mL (≈ 0.229 µM) and 16 µg/mL (≈ 14.6 µM).
As for `CC[C@H]1OC(=O)[C@H](C)[C@@H](O[C@H]2C[C@@](C)(OC)[C@@H](OC(=O)NCCc3ccccc3Cl)[C@H](C)O2)[C@H](C)[C@@H](O[C@@H]2O[C@H](C)C[C@H](N(C)C)[C@H]2O)[C@](C)(O)C[C@@H](C)CN(C)[C@H](C)[C@@H](OC(=O)NCc2ccccc2)[C@]1(C)O`, the minimal inhibitory concentration (MIC) was 0.25 µg/mL (≈ 0.235 µM) with Streptococcus pneumoniae [1], under 0.03 µg/mL in the experiment on Streptococcus pneumoniae [2], 0.25 µg/mL (≈ 0.235 µM) in the experiment on Streptococcus pneumoniae [3] and 4 µg/mL (≈ 3.76 µM) against Streptococcus pneumoniae [4].

Values taken from ChEMBL document CHEMBL1153924, “Synthesis and antibacterial activity of 4'',11-di-O-arylalkylcarbamoyl azithromycin derivatives” (2009).
